Reference: US20050053704A1, “Acidic composition and its uses” (Mionix Corporation, priority 2003, published 2005)
Where two headings read alike, the source gives them in different places.

Experiments:
L. monocytogenes [1] = details: cited from earlier work
[2] = Contact of acidic solution with human skin; details: solution with a pH of less than 0.5
L. monocytogenes [3] = details: dipping in 5% acid, refrigerated storage; cited from earlier work

In the case of CC(O)C(=O)O (stereo not drawn) [lactate], the “Effect on growth of L. monocytogenes” value (L. monocytogenes [1]; lactate (4%), sterile broth, chicken and beef (Shelef and Yang 1991)) is given as “growth suppression” and the “Listeristatic effect, L. monocytogenes strain Scott A” value (L. monocytogenes [1]; lactate concentrations less than 4%, meat model system (Chen and Shelef 1992)) is given as “not listeristatic”.

For CC(O)C(=O)[O-].[Na+] (stereo not drawn) [Sodium lactate], the “Effect on growth of L. monocytogenes” value (L. monocytogenes [1]; 3 or 4% compared to 0 or 2%, cooked beef stored at 10° C. (Miller and Acuff 1994)) is given as “effective against the growth”.

In the case of O=S(=O)(O)O [sulfuric acid], the “Irritation of a hand put into the solution” value [2] is reported as “an irritation would occur within a relatively short span of time”.

In the case of CC(O)C(=O)O (stereo not drawn) [lactic acid], the “Effect on L. monocytogenes of dipping in acid” value (L. monocytogenes [3]) is listed as “not only killed, but also prevented from growing during 90 days of refrigerated storage”.

In the case of CC(=O)O [acetic acid], the “Effect on L. monocytogenes of dipping in acid” value (L. monocytogenes [3]) is given as “not only killed, but also prevented from growing during 90 days of refrigerated storage”.
